Assay results: patent US5081253A, “Imidazo(4,5-C)pyridines as antiosteoporotic agents” (American Home Products Corporation, priority 1990, dated 1992)

Legend:
[1] = system: osteopenia induced by denervation of the sciatic nerve in rats; experiment: Denervation Induced Osteopenia in Rats; type: in vivo, rat (female Sprague Dawley CD)
Source text: The purpose of this assay is to evaluate the effect, in rats, of agents on the reduction in bone mass (osteopenia) induced by immobilization resulting from surgical severance (denervation) of the sciatic nerve.
The animals are housed in plastic cages (4 or 5 rats/cage) with food (rat purina 500 chow) and water ad libitum; 14/10 day/night cycle.
After one week of in-house acclimatization, the animals are randomly divided into groups of 6 to 10 rats/group. Each rat is weighed, anesthetized with an intraperitoneal administration of 100 mg/kg ketamine (Bristol Laboratories, Syracuse, N.Y.) and 0.75 mg/kg Acepromazine (Aveco, Ft. Dodge, Iowa). The left hind limb is shaved and denervated by making a lateral incision parallel to the femur and by surgically removing half of a centimeter of the sciatic nerve adjacent to caudofemoralis and adductor brevis muscles. The incision is closed with wound clips. After surgery, the rats are housed in cages with absorbent bedding to minimize additional trauma to the immobilized limb. A 24 hour post-surgery recovery period is allowed before the initiation of the drug treatment.
The concentration of the drug stock is calculated to be delivered in a volume of 0.1 mL/100 gram body weight. The drug solution or a uniform suspension is prepared in 1% Tween 80 in normal saline. The drugs are administered via oral or parenteral routes daily (five times a week) for four weeks.
A sequential triple labeling of mineralized tissue is employed to determine the osseous changes (especially the bone formation) and the mineralization rates. Each animal is administered 90 mg/kg Xylenol orange (Fisher Scientific Company), S.C., 15 mg/kg Calcein (Sigma Chemical Company), S.C. and 15 mg/kg Demeclocycline (Sigma Chemical Company), i.p., approximately 21 days, 10 days and 2 days prior to the termination of the study, respectively.
At the end of the fourth week, each rat is weighed, anesthetized with an intraperitoneal administration of 100 mg/kg ketamine with 0.75 mg/kg Acepromazine and approximately 4 mL of blood collected via cardiac puncture. The anesthetized rats are euthanized by exposure to carbon dioxide. The femora and tibiae from both limbs are dissected free of soft tissue. (i) Femora are ashed at ~1100° C. for 16 hours using a muffle furnace. --(ii) Proximal tibia are fixed, dehydrated and embedded undecalcified in a methyl methacrylate-glycol methacrylate mixture. Longitudinal tissue sections (10 microns) are prepared on a Polycut S microtome (Reichert). Staining is performed on free-floating sections using a modified Goldner's stain, which are then mounted and coverslipped.
Cancellous bone content in the proximal tibia is quantified (as two dimensional bone mineral area [B.Ar]) with an image analysis processing device (software developed by Drexel University).
The areas of the tibia selected for cancellous bone content evaluation are the primary and secondary spongiosa. To select and standardize this area for evaluation, the epiphyseal growth plate-metaphyseal junction is oriented parallel to the abscissa of the digitizing screen. Bone elements 1.7 mm (secondary spongiosa) and 0.2 mm (primary spongiosa) from the growth plate and equidistant from the flanking cortical elements are then quantified as described above. The total area evaluated is 2.30 mm wide and 1.45 mm deep, constituting a 3.34 mm^2 area.
Body weight, femur mass (dried or ashed) and trabecular (cancellous) bone mineral area (B.Ar) are determined.
The difference (both absolute and percent change) in femur mass and bone mineral area between intact (control) and denervated limbs of a treatment group are compared with that for the vehicle group using a one-way analysis of variance with Dunnett's test, or other multiple comparison methods.
The results are reported in Table I and II under the heading In Vivo.

[2] = system: Rat Limb Bones (basal bone resorption); experiment: Basal Bone Resorption Assay: 45Ca Release from Rat Limb Bones; type: cell-based
Source text: The purpose of this assay is to test stimulators and inhibitors of bone resorption in vitro. The release of ^45 Ca from in vitro labeled murine bone explants into the culture media is taken as an index of bone resorption.
Rat pups are labelled […] by injecting pregnant dams (18 days) with 100 μCi of ^45 Ca.
Two days after the initiation of labelling, the dam is anesthetized with halothane and killed by cervical dislocation. The pups are ablated and quickly decapitated. The calvaria (frontal and parietal bones), forelimbs (containing radii and ulnae), and hind limbs (tibiae) are removed and placed in control media in a petri dish. Bones are debrided of soft tissue by a combination of blunt dissection, and gentle rolling on bibulous paper, taking care not to disturb the periosteum. Cartilaginous ends are cut off long bones. Calvaria are cut in half along midline suture. Bones are separated into 3 categories: calvaria halves, Tibiae and ulnae/radii. Groups of eight (per bone group) are randomly placed in 24-well culture plates containing 0.5 mL of control media. Cultures are maintained at 37° C. in a humidified incubator of 95% air: 5% CO2.
These bones are incubated for 24 hours, media is aspirated from the bones and replaced with fresh media containing test substances. Each bone group has a control group of 8 and a dead bone group of 8. The devitalized cultures are obtained by heating the bones in medium at 55° C. for 60 minutes. The bones are incubated at 37° C. for an additional 72 hours. At the end of this period a 100 microliter aliquot of media is removed and placed in a scintillation vial. Ten mL of Aquasol is added, the ^45 Ca is quantified in a scintillation spectrometer. Bones are rinsed in saline, placed in a scintillation vial, hydrolyzed overnight in 0.75 mL 6N HCl at room temperature. The hydrolyzed bone solution is neutralized by the addition of 2.25 mL of 2N NaOH, followed by 10 mL of Aquasol, the ^45 Ca content is determined by scintillation spectrometry.
Analysis: ^45 Ca release into culture medium from the 24-96 hour period is individually compared to ^45 Ca release in control cultures and to devitalized bone via Dunnett's test. […]

[3] = system: Rat Limb Bones (PTH induced bone resorption); experiment: Bone Resorption Assay: 45Ca Release from Rat Limb Bones (PTH Induced); type: cell-based, rat (Sprague-Dawley CD)
Experimental: The purpose of this assay is to identify compounds that inhibit basal or stimulated bone resorption in culture.
The ability of 2-substituted-imidazo[4,5-c]pyridines to modify the process of bone resorption was evaluated essentially as described by L.G. Raisz, Bone resorption in tissue culture. Factors influencing the response to parathyroid hormone.
Timed pregnant Sprague-Dawley CD® rats (Charles River) are administered 100 μCi ^45 CaCl2 (NEN calcium -45 NEZ-013) in 100 μL of 0.9% saline, subcutaneously, on day 18 of gestation. The rats are sacrificed the following day by CO2 asphyxiation. The fetuses are removed and the right forelimbs excised and placed in a Petri dish containing ice cold explant medium consisting of modified BGJb -Fitton Jackson media (custom formulation, Gibco No. 78-0088) adjusted to pH 7.3 to which 10 mM TES is added. […] Under a dissecting microscope, the bones are gently cleaned of adherent tissue and the cartilaginous ends removed. Incubation and drug treatment. […] The preincubation medium is brought to 37° C. prior to transfer of bones. The preincubation medium consists of the modified BGJb medium (with salts and glucose as above), pH 7.3, containing 29 mM NaHCO3. […] For compounds that require nonaqueous solvents, dilutions are made from the appropriate stock solution with medium. In these instances, basal and bone resorption stimulated controls exposed to an equivalent concentration of the vehicle are included. […] The right ulna and radius from each fetus are used. Both bones are subjected to the same treatment and each treatment group consists of bones from 4 or more fetuses. Treatments are randomly assigned using a preclinical statistics program (PS-ALLOC). After a 48 hour incubation at 37° C. in 5% CO2, the bones are removed from the medium and extracted in 0.5 mL of 0.1N HCl for 1 or more days. Duplicate 150 μL aliquots of the incubation medium and the bone extract are analyzed for ^45 Ca radioactivity in 5 mL of liquid scintillation cocktail.
The percentage of bone ^45 Ca released into the medium is determined as follows: [formula] […]

[4] = Table I, concentration not given

Row | SMILES | Inhibition of Bone Resorption, Basal ([2]; Table II, 10 μg/mL) | Inhibition of Bone Resorption, PTH Induced ([3]; Table II, 10 μg/mL) | Inhibition of Bone Resorption, Basal ([2]; Table I, 10 μg/mL) | Inhibition of Bone Resorption, PTH Induced ([3]; Table I, 10 μg/mL) | further results
1 | COc1cccc(CSc2nc3cnccc3[nH]2)c1 [Example 2, 2-[[(3-Methoxyphenyl)methyl]thio]-1H-imidazo[4,5-c]pyridine] | Inactive | Inactive | – | – | Inhibition of Bone Resorption, In Vivo ([1]; Table II, 25 mg/kg, i.p.): Active
2 | COc1cccc(C[S+]([O-])c2nc3cnccc3[nH]2)c1 (stereo not drawn) [Example 3, 2-[[(3-Methoxyphenyl)methyl]sulfinyl]-1H-imidazo[4,5-c]pyridine] | – | – | Active | – | Inhibition of Bone Resorption, In Vivo ([1]; po, 672 h): Active; IC50 ([3]; Rattus norvegicus, Table I, read-out: Inhibition of Bone Resorption, PTH Induced IC50): 49 µM; Inhibition of Bone Resorption, PTH Induced [3, 4]: Active
3 | COc1cccc(CS(=O)(=O)c2nc3cnccc3[nH]2)c1 [Example 4] | – | – | Marginal | Active | Inhibition of Bone Resorption, In Vivo ([1]; po, 672 h): Inactive
4 | Clc1ccc(CSc2nc3cnccc3[nH]2)cc1Cl [Example 5, 2-[[(3,4-Dichlorophenyl)methyl]thio]-1H-imidazo[4,5-c]pyridine] | Inactive | – | – | – | –
5 | [O-][S+](Cc1ccc(Cl)c(Cl)c1)c1nc2cnccc2[nH]1 (stereo not drawn) [Example 6, 2-[[(3,4-Dichlorophenyl)methyl]sulfinyl]-1H-imidazo[4,5-c]pyridine] | – | – | Active | Active | –
6 | FC(F)(F)c1cccc(CSc2nc3cnccc3[nH]2)c1 [Example 7, 2-[[[3-(Trifluoromethyl)phenyl]methyl]thio]-1H-imidazo[4,5-c]pyridine] | Active | – | – | – | –
7 | [O-][S+](Cc1cccc(C(F)(F)F)c1)c1nc2cnccc2[nH]1 (stereo not drawn) [Example 8, 2-[[[3-(Trifluoromethyl)phenyl]methyl]-sulfinyl]-1H-imidazo[4,5-c]pyridine] | – | – | – | Active | Inhibition of Bone Resorption, Basal [2, 4]: Inactive
8 | Fc1cccc(Cl)c1CSc1nc2cnccc2[nH]1 [Example 9, 2-[[(2-Chloro-6-fluorophenyl)methyl]thio]-1H-imidazo[4,5-c]pyridine] | Inactive | Inactive | – | – | –
9 | [O-][S+](Cc1c(F)cccc1Cl)c1nc2cnccc2[nH]1 (stereo not drawn) [Example 10, 2-[[(2-Chloro-6-fluorophenyl)methyl]-sulfinyl]-1H-imidazo[4,5-c]pyridine] | – | – | Active | Active | Inhibition of Bone Resorption, In Vivo ([1]; po, 672 h): Inactive
10 | c1ccc(CSc2nc3cnccc3[nH]2)cc1 [Example 11, 2-[[(Phenyl)methyl]thio]-1H-imidazo[4,5-c]pyridine] | Inactive | – | – | – | –
11 | [O-][S+](Cc1ccccc1)c1nc2cnccc2[nH]1 (stereo not drawn) [Example 12, 2-[[(Phenyl)methyl]sulfinyl]-1H-imidazo-[4,5-c]pyridine] | – | – | Active | Active | Inhibition of Bone Resorption, In Vivo ([1]; po, 672 h): Inactive
12 | c1ccc(CCSc2nc3cnccc3[nH]2)cc1 [Example 13, 2-[(2-Phenylethyl)thio]-1H-imidazo[4,5-c]pyridine] | Inactive | Inactive | – | – | –
13 | [O-][S+](CCc1ccccc1)c1nc2cnccc2[nH]1 (stereo not drawn) [Example 14, 2-[(2-Phenylethyl)sulfinyl]-1H-imidazo[4,5-c]pyridine] | – | – | Active | Active | –
14 | COc1cccc(CC[S+]([O-])c2nc3cnccc3[nH]2)c1 (stereo not drawn) [Example 17, 2-[[(3 -Methoxyphenyl)ethyl]sulfinyl]-1H-imidazo[4,5-c]pyridine] | – | – | Inactive | Active | Inhibition of Bone Resorption, In Vivo ([1]; Table I, no dose given, oral or parenteral daily (five times a week) for four weeks): Borderline
15 | Fc1cc(Br)ccc1CSc1nc2cnccc2[nH]1 [Example 20, 2-[[(4-Bromo-2-fluorophenyl)methyl]thio]-1H-imidazo[4,5-c]pyridine] | Inactive | Active | – | – | –
16 | c1ccc(COc2cccc(CSc3nc4cnccc4[nH]3)c2)cc1 [Example 22, 2-[[[3-(Phenylmethoxy)phenyl]methyl]thio]-1H-imidazo[4,5-c]pyridine] | Inactive | Active | – | – | –
